Measurements reported in ChEMBL document CHEMBL4152189, “Incorporation of nitric oxide donor into 1,3-dioxyxanthones leads to synergistic anticancer activity” (Eur J Med Chem, 2018).
Active and inactive are the calls of the source. The calls are words filed in the database; no cut-off is given here.

Columns and labels:
HepG2 [1] = assay: Induction of apoptosis in human HepG2 cells assessed as inhibition of p53-MDM2 interaction by measuring downregulation of MDM2 expression at 1 uM after 24 hrs by Western blot analysis; assay type: functional, cell-based
HepG2 [2] = assay: Induction of NO generation in human HepG2 cells assessed as nitrite levels at 0.33 uM after 48 hrs by Griess assay (reference value: 12.8 +/- 1.7 uM); assay type: functional
L02 [3] = assay: Induction of NO generation in human HL-7702 cells assessed as nitrite levels at 0.66 uM after 48 hrs by Griess assay (reference value: 11.6 +/- 1.1 uM); assay type: functional
HepG2 [4] = assay: Cell cycle arrest in human HepG2 cells assessed as accumulation at S phase at 0.16 to 0.66 uM after 24 hrs by propidium iodide/RNAse staining-based flow cytometric analysis; assay type: functional
MCF7 = assay: Growth inhibition of human MCF7 cells after 24 hrs by MTT assay; assay type: functional, cell-based; details: MCF7, 24 h
L02 [5] = assay: Induction of NO generation in human HL-7702 cells assessed as nitrite levels at 0.66 uM after 6 hrs by Griess assay (reference value: 11.8 +/- 1.1 uM); assay type: functional
HepG2 [6] = assay: Induction of NO generation in human HepG2 cells assessed as nitrite levels at 0.16 uM after 24 hrs by Griess assay (reference value: 12.8 +/- 1.7 uM); assay type: functional
HepG2 [7] = assay: Induction of NO generation in human HepG2 cells assessed as nitrite levels at 0.33 uM after 1 hr by Griess assay (reference value: 12.9 +/- 1.5 uM); assay type: functional
HepG2 [8] = assay: Induction of apoptosis in human HepG2 cells assessed as increase in cleaved PARP level up to 0.66 uM after 24 hrs by Western blot analysis; assay type: functional, cell-based
NIH3T3 = assay: Growth inhibition of mouse NIH/3T3 cells after 24 hrs by MTT assay; assay type: cell-based; details: NIH3T3, 24 h
MDA-MB-231 = assay: Growth inhibition of human MDA-MB-231 cells after 24 hrs by MTT assay; assay type: functional, cell-based; details: MDA-MB-231, 24 h
HepG2 [9] = assay: Growth inhibition of human HepG2 cells pre-incubated with mtADH inhibitor PCDA for 2.5 hrs followed by 0.66 uM compound treatment for 24 hrs by MTT assay; assay type: functional, cell-based
L02 [10] = assay: Induction of NO generation in human HL-7702 cells assessed as nitrite levels at 0.66 uM after 3 hrs by Griess assay (reference value: 11.6 +/- 1.2 uM); assay type: functional
HepG2 [11] = assay: Induction of NO generation in human HepG2 cells assessed as nitrite levels at 0.16 uM after 6 hrs by Griess assay (reference value: 12.6 +/- 1.1 uM); assay type: functional
HepG2 [12] = assay: Growth inhibition of human HepG2 cells after 24 hrs by MTT assay; assay type: functional, cell-based; details: HepG2, 24 h
HepG2 [13] = assay: Induction of NO generation in human HepG2 cells assessed as nitrite levels at 0.33 uM after 24 hrs by Griess assay (reference value: 12.8 +/- 1.7 uM); assay type: functional
L02 [14] = assay: Induction of NO generation in human HL-7702 cells assessed as nitrite levels at 0.66 uM after 1 hr by Griess assay (reference value: 11.6 +/- 1.1 uM); assay type: functional
HepG2 [15] = assay: Induction of NO generation in human HepG2 cells assessed as nitrite levels at 0.66 uM after 3 hrs by Griess assay (reference value: 12.8 +/- 1.5 uM); assay type: functional
HepG2 [16] = assay: Induction of apoptosis in human HepG2 cells assessed as inhibition of p53-MDM2 interaction by measuring p53/MDM2 ratio at 1 uM after 24 hrs by Western blot analysis (reference value: 0.48); assay type: functional
HepG2 [17] = assay: Induction of NO generation in human HepG2 cells assessed as nitrite levels at 0.16 uM after 48 hrs by Griess assay (reference value: 12.8 +/- 1.7 uM); assay type: functional
HepG2 [18] = assay: Growth inhibition of human HepG2 cells pre-incubated with NO scavenger carboxy-PTIO for 1 hr followed by 0.66 uM compound treatment for 24 hrs by MTT assay; assay type: functional, cell-based
HepG2 [19] = assay: Induction of apoptosis in human HepG2 cells assessed as early apoptotic cells at 0.66 uM after 24 hrs by Annexin-V/propidium iodide staining-based flow cytometric analysis; assay type: functional
HepG2 [20] = assay: Induction of NO generation in human HepG2 cells assessed as nitrite levels at 0.66 uM after 24 hrs by Griess assay (reference value: 12.8 +/- 1.7 uM); assay type: functional
HepG2 [21] = assay: Cell cycle arrest in human HepG2 cells assessed as accumulation at S phase at 0.66 uM after 24 hrs by propidium iodide/RNAse staining-based flow cytometric analysis relative to control; assay type: functional
HepG2 [22] = assay: Induction of NO generation in human HepG2 cells assessed as nitrite levels at 0.33 uM after 12 hrs by Griess assay (reference value: 12.7 +/- 1.8 uM); assay type: functional
HepG2 [23] = assay: Induction of apoptosis in human HepG2 cells assessed as early apoptotic cells at 0.33 uM after 24 hrs by Annexin-V/propidium iodide staining-based flow cytometric analysis; assay type: functional
[24] = Selectivity index, ratio of IC50 for human HL-7702 cells to IC50 for human HepG2 cells; assay type: toxicity; details: HL-7702 cells versus HepG2 cells, read-out: Ratio IC50
L02 [25] = assay: Induction of NO generation in human HL-7702 cells assessed as nitrite levels at 0.66 uM after 60 hrs by Griess assay (reference value: 11.8 +/- 1.3 uM); assay type: functional
HepG2 [26] = assay: Induction of apoptosis in human HepG2 cells at 0.66 uM after 24 hrs by Annexin-V/propidium iodide staining-based flow cytometric analysis; assay type: functional
HepG2 [27] = assay: Induction of NO generation in human HepG2 cells assessed as nitrite levels at 0.16 uM after 1 hr by Griess assay (reference value: 12.9 +/- 1.5 uM); assay type: functional
HepG2 [28] = assay: Induction of apoptosis in human HepG2 cells at 0.33 uM after 24 hrs by Annexin-V/propidium iodide staining-based flow cytometric analysis; assay type: functional
HepG2 [29] = assay: Induction of NO generation in human HepG2 cells assessed as nitrite levels at 0.33 uM after 6 hrs by Griess assay (reference value: 12.6 +/- 1.1 uM); assay type: functional
HepG2 [30] = assay: Induction of NO generation in human HepG2 cells assessed as nitrite levels at 0.66 uM after 12 hrs by Griess assay (reference value: 12.7 +/- 1.8 uM); assay type: functional
HepG2 [31] = assay: Induction of apoptosis in human HepG2 cells at 0.16 uM after 24 hrs by Annexin-V/propidium iodide staining-based flow cytometric analysis; assay type: functional
HepG2 [32] = assay: Cell cycle arrest in human HepG2 cells assessed as accumulation at S phase after 24 hrs by propidium iodide/RNAse staining-based flow cytometric analysis; assay type: functional
HepG2 [33] = assay: Induction of NO generation in human HepG2 cells assessed as nitrite levels at 0.16 uM after 12 hrs by Griess assay (reference value: 12.7 +/- 1.8 uM); assay type: functional
HepG2 [34] = assay: Induction of NO generation in human HepG2 cells assessed as nitrite levels at 0.66 uM after 48 hrs by Griess assay (reference value: 12.8 +/- 1.7 uM); assay type: functional

## COc1cccc2oc3cc(OCCCCCO[N+](=O)[O-])cc(O)c3c(=O)c12
HepG2 [1]
  Activity: Active
HepG2 [2]
  Activity: 26.6 µM
L02 [3]
  Activity: 16.2 µM
HepG2 [4]
  Activity: Active
MCF7
  IC50: 33.1 µM
L02 [5]
  Activity: 17.1 µM
HepG2 [6]
  Activity: 26.2 µM
HepG2 [7]
  Activity: 19.3 µM
HepG2 [8]
  Activity: Dose-dependent effect
NIH3T3
  IC50: 378 µM
MDA-MB-231
  IC50: 0.57 µM
HepG2 [9]
  growth inhibition (GI): inactive
L02 [10]
  Activity: 15.1 µM
HepG2 [11]
  Activity: 22.9 µM
HepG2 [12]
  IC50: 0.33 µM
HepG2 [13]
  Activity: 35.1 µM
L02 [14]
  Activity: 14.2 µM
HepG2 [15]
  Activity: 25.7 µM
HepG2 [16]
  Ratio: 6.46
HepG2 [17]
  Activity: 21.3 µM
HepG2 [18]
  growth inhibition (GI): inactive
HepG2 [19]
  Activity: 45.1%
HepG2 [20]
  Activity: 39.1 µM
HepG2 [21]
  Activity: 93.1%
HepG2 [22]
  Activity: 31.5 µM
HepG2 [23]
  Activity: 64.8%
[24]
  selectivity ratio: 1140
L02 [25]
  Activity: 14.5 µM
HepG2 [26]
  Activity: 86.8%
HepG2 [27]
  Activity: 15.6 µM
HepG2 [28]
  Activity: 76.6%
HepG2 [29]
  Activity: 29.6 µM
HepG2 [30]
  Activity: 36 µM
HepG2 [31]
  Activity: 4.6%
HepG2 [32]
  Activity: Dose-dependent effect
HepG2 [33]
  Activity: 25.7 µM
HepG2 [34]
  Activity: 28.1 µM
